According to patent publication US9034891B2, “Bicyclic heterocyclic spiro compounds” (ISRAEL INSTITUTE FOR BIOLOGICAL RESEARCH, priority 2009, dated 2015):

What was measured:
M2-M5 mAChR subtypes = assay: Intracellular Ca2+ mobilization in cells stably transfected with M2-M5 mAChR subtypes; assay type: cell-based
Source text: To evaluate selectivity for a subtype of mAChR, in particular the M1 mAChR vs. M3 and MS mAChR, the assays were calibrated using ligands that have a combined activity, e.g. M1 agonistic and M3 antagonistic or M1 agonistic and MS antagonistic profiles, respectively. This can eliminate effects due to different receptor reserves in cell-based assays.

M1 mAChR = target: T1, M1 mAChR (Homo sapiens, UniProt P11229); assay: αAPPs secretion in CHO cells double transfected with human APP695 and human M1 mAChR; assay type: cell-based
T1 sequence (P11229 1-460): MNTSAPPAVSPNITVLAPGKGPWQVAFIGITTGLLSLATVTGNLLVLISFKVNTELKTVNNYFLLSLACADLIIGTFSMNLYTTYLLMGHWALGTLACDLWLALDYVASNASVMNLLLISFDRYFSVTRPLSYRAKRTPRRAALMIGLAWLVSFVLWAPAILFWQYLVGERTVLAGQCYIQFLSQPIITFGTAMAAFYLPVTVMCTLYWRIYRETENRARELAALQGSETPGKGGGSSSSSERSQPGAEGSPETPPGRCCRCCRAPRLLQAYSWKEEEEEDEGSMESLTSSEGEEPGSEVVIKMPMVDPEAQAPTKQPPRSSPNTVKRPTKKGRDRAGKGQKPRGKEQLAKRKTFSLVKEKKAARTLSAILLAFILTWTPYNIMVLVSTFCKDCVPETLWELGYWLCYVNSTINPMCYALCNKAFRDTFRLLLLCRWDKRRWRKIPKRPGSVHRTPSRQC
Description: α-APPs Secretion studies following incubation with the tested compounds were performed as described in Haring, et al. J. Neurochem., 1998, 71:2094-103. […] A day later, cells were washed twice with serum free media, and treated with the test compound at various concentrations ranging from 0.1 nM to 100 μM. […] After 1 hour the conditioned medium was collected to cold Eppendorf tubes, which included a protease inhibitor cocktail (0.1 mM phenylmethylsulphonyl fluoride (PMSF); 5 μg/ml leupeptin; 5 μg/ml pepstatin and 5 units/ml aprotinin) for determining αAPPs release. The protein content of each sample was concentrated using Centricon tubes (Amicon, Beverly, Mass.). […] CHO cells double transfected with human APP695 and M1 mAChR APPs bands were probed using anti-amyloid beta protein (1:1000, monoclonal 6E10 antibody, MAB1560, Chemicon) and peroxidase-linked rabbit anti mouse IgG (1:5,000; Jackson Immuno Research, PA). PC12 cells stably transfected with M1 mAChR APPs bands were probed using the anti-Alzheimer precursor protein A4 (1:4,000; monoclonal 22C11 antibody, Boehringer Mannheim) and the peroxidase-linked rabbit anti mouse IgG (1:20,000; Jackson Immuno Research, PA). Following extensive washout, the membranes were treated with Western Lightning Chemiluminescence Reagent Plus (PerkinElmer Life Sciences, MA) followed by exposure to SuperRX film (Fuji Medical X-ray film, Tokyo, Japan). Quantitative determination of the total APPs bands was performed by Scion Image program (NIH, Bethesda, USA). Samples of control and CCh were assayed in parallel and thus enabled compilation of data from separate experiments.

GSK-3β = assay: Phospho-GSK3β (Ser 9) western blot in PC12 cells transfected with M1 mAChR, +Aβ25-35; assay type: cell-based, rat; settings: 100 μM-1 nM; Aβ25-35 20 μM
Source text: Anti-GSK-3 (Santa Cruz Biotechnology) is a phosphorylation-independent monoclonal antibody reactive with both GSK-3α and GSK3β. In the same experiments the status of tau protein phosphorylation was studied using mouse anti Tau-1 monoclonal antibody (Chemicon, CAT number MAB3420), which recognizes an unphosphorylated epitope of tau.

PC12 cells = assay: Mitochondrial apoptosis pathway, Bax and Bcl-2 immunoreactivity in PC12 cells; assay type: cell-based, rat
Description: These cells were partially differentiated (2-3 days), as observed under microscope. […] The pellet (rich mitochondrial fraction) was re-suspended with 200 μl Ripa buffer and lysed by rapid passage through a syringe needle (23G) for five to six times. The lysate was then used for further evaluation.
Bands were probed using the Rabbit Bax antibody (1:1000, Cell signaling, Cat. No. 2772) and Rabbit Bcl-2 antibody (1:1000, Cell signaling, Cat. No. 2870) followed by anti rabbit IgG (H&L) HRP (1:5,000, Jackson Immuno Research, 111-035-144).

sigma 2 receptor = sigma 2 receptor (Homo sapiens, UniProt Q5BJF2); assay: Binding to sigma 2 receptor; settings: 0.1 nM-10 μM
Source text: (§1) It was specifically designed to provide information not only on potential limitations of drug candidates, but also for off-target activity identification. […] In a further extension of this study, functional studies were done on most of these receptors.

α-4β2 nicotinic receptor = α-4β2 nicotinic receptor (Homo sapiens, UniProt P17787+P43681); assay: Binding to α4β2 nicotinic receptor; settings: 0.1 nM-10 μM
Source text: as §1

[1] = Description: On the day of dosing, careful clinical examinations were carried out and recorded periodically during the first 4 hours post-dosing and at the end of the respective working day. Thereafter, animals were inspected and clinical signs were recorded at least once daily throughout the entire 14-day observation period. Observations included changes in skin, fur, eyes, mucous membranes, occurrence of secretions and excretions (e.g. diarrhea) and autonomic activity (e.g. lacrimation, salivation, piloerection, pupil size, unusual respiratory pattern). Changes in gait, posture and response to handling, as well as the presence of bizarre behavior, tremors, convulsion, sleep and coma were also examined. […] In view of the sequential method applied in the current study and in order to standardize, as much as possible, all body weight and body weight gain values, the respective percentage change in body weight vs. the day of dosing was calculated for each animal and group. […] All animals were subjected to a full detailed necropsy and gross pathological examination following the scheduled termination. At necropsy, all animals were subjected to thorough examination, including the external surface of the body, all orifices, cranial, thoracic and abdominal cavities and their contents.

Chain of sigma 2 receptor (Q5BJF2 whole entry, species assumed): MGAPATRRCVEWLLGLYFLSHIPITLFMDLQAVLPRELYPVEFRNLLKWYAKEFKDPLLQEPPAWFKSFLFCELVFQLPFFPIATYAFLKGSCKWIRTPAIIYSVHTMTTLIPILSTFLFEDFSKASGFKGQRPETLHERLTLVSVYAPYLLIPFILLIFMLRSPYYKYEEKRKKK
Chain of α-4β2 nicotinic receptor (P43681 29-627 limits assumed): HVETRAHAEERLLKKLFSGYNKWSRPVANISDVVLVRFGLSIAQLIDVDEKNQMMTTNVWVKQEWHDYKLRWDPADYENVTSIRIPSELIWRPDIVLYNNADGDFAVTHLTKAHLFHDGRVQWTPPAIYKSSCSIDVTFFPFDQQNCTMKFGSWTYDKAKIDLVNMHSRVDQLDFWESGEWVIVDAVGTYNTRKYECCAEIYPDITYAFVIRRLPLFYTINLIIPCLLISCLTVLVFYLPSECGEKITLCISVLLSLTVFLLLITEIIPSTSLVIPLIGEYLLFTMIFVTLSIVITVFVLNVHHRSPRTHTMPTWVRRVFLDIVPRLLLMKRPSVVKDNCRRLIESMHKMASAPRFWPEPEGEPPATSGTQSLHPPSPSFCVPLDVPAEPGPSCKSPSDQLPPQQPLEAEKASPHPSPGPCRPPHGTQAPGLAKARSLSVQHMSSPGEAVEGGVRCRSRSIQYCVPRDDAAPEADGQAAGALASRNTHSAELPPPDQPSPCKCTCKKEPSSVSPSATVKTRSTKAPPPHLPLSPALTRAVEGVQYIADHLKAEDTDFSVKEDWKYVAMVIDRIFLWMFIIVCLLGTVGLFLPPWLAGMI
Chain of α-4β2 nicotinic receptor (P17787 26-502): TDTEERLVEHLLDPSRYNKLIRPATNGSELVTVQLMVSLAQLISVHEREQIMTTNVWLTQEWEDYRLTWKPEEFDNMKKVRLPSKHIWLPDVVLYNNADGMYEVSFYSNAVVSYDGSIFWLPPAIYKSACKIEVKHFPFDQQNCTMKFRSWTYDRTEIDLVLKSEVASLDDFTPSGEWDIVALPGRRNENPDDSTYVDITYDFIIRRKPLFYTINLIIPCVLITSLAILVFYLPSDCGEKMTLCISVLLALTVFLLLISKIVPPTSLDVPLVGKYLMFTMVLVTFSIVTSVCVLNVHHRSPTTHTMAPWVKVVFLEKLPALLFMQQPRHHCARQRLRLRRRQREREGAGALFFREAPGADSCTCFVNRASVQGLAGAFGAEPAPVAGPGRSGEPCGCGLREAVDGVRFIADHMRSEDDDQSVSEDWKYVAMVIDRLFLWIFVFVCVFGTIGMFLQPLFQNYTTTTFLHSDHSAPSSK

## C[C@@H]1SC2(CCN(C)CC2)CN1C(=O)CCc1c[nH]c2ccccc12 (single isomer, unassigned) [AF710B]
M2-M5 mAChR subtypes
  agonistic activity on the M2-M5 mAChR subtypes: did not show detectable agonistic activity
M1 mAChR; CHO cells, 0.1 nM to 1 μM
  release of αAPPs: enhanced the release of αAPPs
M1 mAChR; doubly-transfected CHO cells, AF710B at 0.01 μM, AF710 at 0.1 μM, AF710A at 1 μM
  maximal αAPPs secretion in comparison to untreated control cells: 225%
GSK-3β
  overactivation of GSK-3β induced by Aβ25-35: inhibited the overactivation of GSK-3β
PC12 cells
  Bax elevation after NGF deprivation: attenuated Bax elevation
PC12 cells; Rattus norvegicus, PC-12, 10 nM, read-out: Aβ 25-35 induced neurotoxicity expressed as Bax/Bcl2, maximum effect
  Emax at 0.01 µM: 35%
Sigma 2 receptor
  binding to sigma 2 receptor: does not bind
α-4β2 nicotinic receptor
  binding to α-4β2 nicotinic receptor: does not bind
[1]; 1, 10 and 50 mg/kg, oral gavage, 14-day observation
  mortality: No mortality
[1]; rat, in vivo, po
  gross pathological findings at necropsy: No gross pathological findings
